Source: PubChem BioAssay AID248 (DTP/NCI, 2004)
Where “and” joins values, the source holds several entries; their conditions need not be identical. Equal entries are not always repeated. Inconclusive results and toxic doses are left out. Rule as the data show it: active = T/C of 150% or more; inactive = T/C below 125%.

Tested on: L1210 leukemia ip in BDF1 mice, survival T/C
Experiment: NCI In Vivo Anticancer Drug Screen. Data for tumor model L1210 Leukemia (intraperitoneal) in B6D2F1 (BDF1) mice
Settings: endpoint: mean survival time, higher = longer survival
How it was run: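 Tumor cells were implanted, animals were treated, and survival was followed. The result divides the treated measurement by the vehicle-control measurement.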

[1] = dose: 100.0 mg/kg/injection, schedule: Q01DX009 (ip), vehicle: Klucel (hydroxypropylcellulose) (HPC)
[2] = dose: 100.0 mg/kg/injection, schedule: Q04DX003 (ip), vehicle: Klucel (hydroxypropylcellulose) (HPC)
[3] = dose: 200.0 mg/kg/injection, schedule: Q01DX009 (ip), vehicle: Klucel (hydroxypropylcellulose) (HPC)
[4] = dose: 200.0 mg/kg/injection, schedule: Q04DX003 (ip), vehicle: Klucel (hydroxypropylcellulose) (HPC)
[5] = dose: 400.0 mg/kg/injection, schedule: Q04DX003 (ip), vehicle: Klucel (hydroxypropylcellulose) (HPC)
[6] = dose: 100.0 mg/kg/injection, schedule: Q04DX003 (ip), vehicle: saline with Tween-80
[7] = dose: 200.0 mg/kg/injection, schedule: Q04DX003 (ip), vehicle: saline with Tween-80
[8] = dose: 400.0 mg/kg/injection, schedule: Q04DX003 (ip), vehicle: saline with Tween-80
[9] = dose: 50.0 mg/kg/injection, schedule: Q01DX009 (ip), vehicle: saline with Tween-80
[10] = dose: 100.0 mg/kg/injection, schedule: Q01DX009 (ip), vehicle: saline with Tween-80
[11] = dose: 200.0 mg/kg/injection, schedule: Q01DX009 (ip), vehicle: saline with Tween-80
[12] = dose: 50.0 mg/kg/injection, schedule: Q01DX009 (ip), vehicle: saline sonified
[13] = dose: 100.0 mg/kg/injection, schedule: Q01DX009 (ip), vehicle: saline sonified
[14] = dose: 25.0 mg/kg/injection, schedule: Q01DX001 (ip), vehicle: saline
[15] = dose: 50.0 mg/kg/injection, schedule: Q01DX001 (ip), vehicle: saline
[16] = dose: 100.0 mg/kg/injection, schedule: Q01DX001 (ip), vehicle: saline
[17] = dose: 50.0 mg/kg/injection, schedule: Q04DX003 (ip), vehicle: Klucel (hydroxypropylcellulose) (HPC)
[18] = dose: 200.0 mg/kg/injection, schedule: Q01DX001 (ip), vehicle: saline
[19] = dose: 400.0 mg/kg/injection, schedule: Q01DX001 (ip), vehicle: saline
[20] = dose: 25.0 mg/kg/injection, schedule: Q01DX009 (ip), vehicle: Klucel (hydroxypropylcellulose) (HPC)
[21] = dose: 50.0 mg/kg/injection, schedule: Q01DX009 (ip), vehicle: Klucel (hydroxypropylcellulose) (HPC)
[22] = dose: 100.0 mg/kg/injection, schedule: Q04DX003 (ip), vehicle: saline
[23] = dose: 200.0 mg/kg/injection, schedule: Q04DX003 (ip), vehicle: saline
[24] = dose: 400.0 mg/kg/injection, schedule: Q04DX003 (ip), vehicle: saline

Measured: T/C

O=C(O)C1c2ccccc2Cc2ccccc21
inactive: [1] 110 % of control | [2] 103 % of control | [3] 101 % of control | [4] 97 % of control | [5] 106 % of control

CC(=O)c1cccc(F)n1
inactive: dose: 100.0 mg/kg/injection, schedule: Q04DX002 (ip), vehicle: Klucel (hydroxypropylcellulose) (HPC) 93 % of control | dose: 200.0 mg/kg/injection, schedule: Q04DX002 (ip), vehicle: Klucel (hydroxypropylcellulose) (HPC) 110 % of control | dose: 400.0 mg/kg/injection, schedule: Q04DX002 (ip), vehicle: Klucel (hydroxypropylcellulose) (HPC) 100 % of control

COc1ccc(OC)c(NC(=O)Oc2ccc(Cl)c(C)c2)c1
inactive: [6] 90 % of control | [7] 87 % of control | [8] 93 % of control

Cc1ccc(-c2nc3cc(Cl)ccc3c(=O)o2)cc1
inactive: [6] 105 % of control | [7] 102 % of control | [8] 94 % of control

c1ccc(Cc2cncc(Cc3ccccc3)n2)cc1
inactive: [2] 101 % of control | [4] 97 % of control | [5] 98 % of control

CSc1ccc(NC(=O)Nc2cccc(C(C)=O)c2)cc1
inactive: [1] 97 % of control | [3] 94 % of control | dose: 400.0 mg/kg/injection, schedule: Q01DX009 (ip), vehicle: Klucel (hydroxypropylcellulose) (HPC) 91 % of control

O=C(N/N=C/c1cccc([N+](=O)[O-])c1)c1ccccc1Cl
inactive: [9] 98 % of control | [10] 107 % of control | [11] 102 % of control

O=C(O)c1ccccc1NC(=O)C(F)(F)F
inactive: dose: 25.0 mg/kg/injection, schedule: Q01DX009 (ip), vehicle: saline sonified 98 % of control | [12] 96 % of control | [13] 93 % of control | [2] 101 % of control

C=C([Si](C)(C)C)[Si](C)(C)C
inactive: [6] 102 % of control | [7] 102 % of control | [8] 94 % of control

COc1cc(Br)c2c(c1OC)C1(CC[N+](C)(C)C)CC(=O)CCC1CC2 (configuration not stated)
inactive: dose: 12.5 mg/kg/injection, schedule: Q01DX001 (ip), vehicle: saline 97 % of control | [14] 97 % of control | [15] 94 % of control | [16] 97 % of control

CC(C)C(CNC1=NCCN1)c1cccc2ccccc12 (configuration not stated)
inactive: dose: 12.5 mg/kg/injection, schedule: Q04DX003 (ip), vehicle: saline with Tween-80 93 % of control | dose: 25.0 mg/kg/injection, schedule: Q04DX003 (ip), vehicle: saline with Tween-80 93 % of control | dose: 50.0 mg/kg/injection, schedule: Q04DX003 (ip), vehicle: saline with Tween-80 119 % of control

CCN(CC)Cc1cc(Nc2nc(/C=C/c3ccc(Cl)cc3)nc(Cl)c2-c2ccc(Cl)cc2)ccc1O
inactive: dose: 12.0 mg/kg/injection, schedule: Q01DX001 (ip), vehicle: saline 100 % of control | dose: 12.5 mg/kg/injection, schedule: Q04DX003 (ip), vehicle: Klucel (hydroxypropylcellulose) (HPC) 95 % of control | [14] 107 % of control | dose: 25.0 mg/kg/injection, schedule: Q04DX003 (ip), vehicle: Klucel (hydroxypropylcellulose) (HPC) 98 % of control | [15] 100 % of control | [17] 97 % of control

O=Cc1cc2c(cc1[N+](=O)[O-])OCO2
inactive: [2] 94 % of control | [6] 101 % of control | [4] 96 % of control | [7] 97 % of control | [5] 92 % of control | [8] 95 % of control

Brc1c(Br)c(Br)c(Br)c(Br)c1Br
inactive: [16] 93 % of control | [18] 92 % of control | [19] 98 % of control

CCC1(Sc2ncnc3c2ncn3C2OC(CO)C(O)C2O)C(=O)NC(=O)NC1=O (configuration not stated)
inactive: [16] 114 % of control | [18] 111 % of control | [19] 120 % of control

O=C(CBr)c1cc(-c2ccc(Cl)c(Cl)c2)nc2c(Cl)cc(Cl)cc12
inactive: [16] 94 % of control | [18] 95 % of control | [19] 94 % of control

COC(=O)/C(C#N)=N/O
inactive: [9] 102 % of control | [10] 97 % of control | [6] 100 % of control | [11] 94 % of control | [7] 94 % of control

CC12CCC3c4ccc([O-])c([N+]#N)c4CCC3C1CCC2=O (configuration not stated)
inactive: [20] 103 % of control | [21] 87 % of control

COc1cc(C(=O)N2CCN(Cc3ccccc3)CC2)cc(OC)c1OC
inactive: [2] 93 % of control | [4] 107 % of control | [5] 93 % of control

CCOC(=O)CSc1c([N+](=O)[O-])c(C)nn1C
inactive: dose: 25.0 mg/kg/injection, schedule: Q01DX009 (ip), vehicle: water 101 % of control | dose: 50.0 mg/kg/injection, schedule: Q01DX009 (ip), vehicle: water 97 % of control | dose: 100.0 mg/kg/injection, schedule: Q01DX009 (ip), vehicle: water 105 % of control | dose: 200.0 mg/kg/injection, schedule: Q01DX009 (ip), vehicle: water 97 % of control | dose: 400.0 mg/kg/injection, schedule: Q01DX009 (ip), vehicle: water 92 % of control

CCCCCCCCCCCCCCCC(=O)NCCO
inactive: [12] 96 % of control | [17] 91 % of control | [13] 91 % of control | [2] 106 % of control | dose: 200.0 mg/kg/injection, schedule: Q01DX009 (ip), vehicle: saline sonified 96 % of control | [4] 96 % of control and 89 % of control

COc1c(O)c(O)cc2c[n+]3ccccc3c(C)c12
inactive: [21] 95 % of control

CN(C)c1ncnc2c1c(Br)cn2C1OC(CO)C(O)C1O (configuration not stated)
inactive: dose: 5.0 mg/kg/injection, schedule: Q01DX001 (ip), vehicle: saline 101 % of control | dose: 10.0 mg/kg/injection, schedule: Q01DX001 (ip), vehicle: saline 102 % of control | dose: 20.0 mg/kg/injection, schedule: Q01DX001 (ip), vehicle: saline 104 % of control | dose: 40.0 mg/kg/injection, schedule: Q01DX001 (ip), vehicle: saline 108 % of control

N#CC1(OC2OC(CO)C(O)C(O)C2O)C=CC(O)C1O (configuration not stated)
inactive: [22] 98 % of control | [23] 105 % of control | [24] 96 % of control

O=[N+]([O-])c1ccc(S(=O)(=O)CC(Cl)c2ccccc2)cc1 (configuration not stated)
inactive: [16] 102 % of control | dose: 100.0 mg/kg/injection, schedule: Q01DX009 (ip), vehicle: acetone 86 % of control | [18] 107 % of control | dose: 200.0 mg/kg/injection, schedule: Q01DX009 (ip), vehicle: acetone 94 % of control | [19] 110 % of control | dose: 400.0 mg/kg/injection, schedule: Q01DX009 (ip), vehicle: acetone 96 % of control

O=C(Cn1ccc(O)cc1=O)c1cccs1
inactive: [10] 102 % of control | [6] 101 % of control | [11] 100 % of control | [7] 100 % of control | dose: 400.0 mg/kg/injection, schedule: Q01DX009 (ip), vehicle: saline with Tween-80 98 % of control | [8] 100 % of control

COc1ccccc1N1CCN(CCCC(O)c2ccc(F)cc2)CC1 (configuration not stated)
inactive: dose: 10.0 mg/kg/injection, schedule: Q04DX003 (ip), vehicle: Klucel (hydroxypropylcellulose) (HPC) 91 % of control | dose: 12.5 mg/kg/injection, schedule: Q01DX009 (ip), vehicle: Klucel (hydroxypropylcellulose) (HPC) 98 % of control | dose: 20.0 mg/kg/injection, schedule: Q04DX003 (ip), vehicle: Klucel (hydroxypropylcellulose) (HPC) 98 % of control | [20] 100 % of control | dose: 40.0 mg/kg/injection, schedule: Q04DX003 (ip), vehicle: Klucel (hydroxypropylcellulose) (HPC) 90 % of control | [21] 98 % of control

C=C1C=C(C)N(C(=O)c2ccccc2)CCN1C(=O)c1ccccc1
inactive: [22] 96 % of control | [23] 95 % of control | [24] 106 % of control

CN(C)c1ccc(/C=C2\C=Nc3ccccc32)cc1
inactive: [6] 87 % of control | [7] 87 % of control | [8] 87 % of control

O=[N+]([O-])c1ccccc1N=Nc1c(O)[nH]c2c(Cl)cc(Cl)cc12
inactive: [16] 105 % of control
